ChEMBL document CHEMBL5505955, “Exploring the potential of histone demethylase inhibition in multi-therapeutic approaches for cancer treatment” (Eur J Med Chem, 2024)

How the values were obtained:
[1] = biological target: T1, Lysine-specific histone demethylase 1A (Homo sapiens, UniProt O60341); assay: Inhibition of human recombinant LSD1 incubated for 60 mins by fluorescence based analysis
[2] = biological target: T2, Amine oxidase [flavin-containing] A (Homo sapiens, UniProt P21397); assay: Inhibition of MAO-A (unknown origin) measured by MAO-GloTM method
T2 sequence (P21397 whole entry): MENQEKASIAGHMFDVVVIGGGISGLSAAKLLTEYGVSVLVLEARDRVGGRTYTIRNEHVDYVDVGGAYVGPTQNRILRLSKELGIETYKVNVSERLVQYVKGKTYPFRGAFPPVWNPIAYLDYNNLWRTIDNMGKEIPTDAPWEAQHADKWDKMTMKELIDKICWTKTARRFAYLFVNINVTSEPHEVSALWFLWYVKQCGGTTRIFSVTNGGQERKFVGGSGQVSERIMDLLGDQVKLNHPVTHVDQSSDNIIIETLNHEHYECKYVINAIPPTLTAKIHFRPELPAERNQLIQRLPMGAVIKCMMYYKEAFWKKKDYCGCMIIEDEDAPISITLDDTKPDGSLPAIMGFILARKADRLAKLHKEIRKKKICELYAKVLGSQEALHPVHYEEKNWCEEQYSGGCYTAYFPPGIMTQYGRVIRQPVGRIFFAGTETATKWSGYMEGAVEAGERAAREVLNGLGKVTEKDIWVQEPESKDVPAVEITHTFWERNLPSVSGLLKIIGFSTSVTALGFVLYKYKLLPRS

A549 = assay: Antiproliferative activity against human A549 cells assessed as reduction in cell viability incubated for 72 hrs by MTT assay; format: functional, cell-based; conditions: A549, 72 h
MIA PaCa-2 = assay: Antiproliferative activity against human MIA PaCa-2 cells assessed as reduction in cell viability incubated for 72 hrs by MTT assay; format: functional, cell-based; conditions: MIA PaCa-2, 72 h
A2058 = assay: Antiproliferative activity against human A2058 cells assessed as reduction in cell viability incubated for 72 hrs by MTT assay; format: functional, cell-based; conditions: A2058, 72 h
HT-29 = assay: Antiproliferative activity against human HT-29 cells assessed as reduction in cell viability incubated for 72 hrs by MTT assay; format: functional, cell-based; conditions: HT-29, 72 h
Bel-7402 = assay: animal or person; conditions: Mus musculus, Bel-7402, po, 504 h, read-out: TGI
Description: Anticancer activity against human Bel-7402 cells xenografted in nude mouse model assessed as tumor growth inhibition at 60 mg/kg, IG administered for 21 days relative to control

Histone deacetylase 1 = Histone deacetylase 1 (Homo sapiens, UniProt Q13547); assay: Inhibition of HDAC1 (unknown origin)
[3] = biological target: T1, Lysine-specific histone demethylase 1A
Description: Inhibition of LSD1 (unknown origin)

NCI-H1975 = assay: cells; conditions: Homo sapiens

Histone deacetylase 1, sequence (Q13547 whole entry): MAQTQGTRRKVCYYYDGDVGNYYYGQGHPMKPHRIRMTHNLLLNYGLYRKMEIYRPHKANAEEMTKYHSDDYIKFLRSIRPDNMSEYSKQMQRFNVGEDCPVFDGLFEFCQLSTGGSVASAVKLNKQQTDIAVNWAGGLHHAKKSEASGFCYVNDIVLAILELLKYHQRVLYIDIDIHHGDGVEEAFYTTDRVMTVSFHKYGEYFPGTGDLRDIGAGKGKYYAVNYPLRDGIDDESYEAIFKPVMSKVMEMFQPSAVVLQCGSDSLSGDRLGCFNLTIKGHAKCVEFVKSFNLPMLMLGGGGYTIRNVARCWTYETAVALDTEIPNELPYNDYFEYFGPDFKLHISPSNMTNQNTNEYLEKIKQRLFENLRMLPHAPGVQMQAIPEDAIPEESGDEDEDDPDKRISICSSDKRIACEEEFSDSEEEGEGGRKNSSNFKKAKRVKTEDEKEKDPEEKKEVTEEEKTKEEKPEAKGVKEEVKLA

Question: For COC1=CC(=O)OC(/C=C/c2ccccc2)C1 (stereo unspecified), which IC50 [1] is on record?
Answer: 3850 nM

Question: What about the IC50 [2] of the same compound?
Answer: 1.29 nM

Question: O=C(N/N=C/c1ccccc1O)c1cccc(Cl)c1 was tested. Which IC50 (A549) did it give?
Answer: 2400 nM

Question: What about the IC50 (MIA PaCa-2) of the same compound?
Answer: 9500 nM

Question: And the IC50 (A2058)?
Answer: 6500 nM

Question: And the IC50 (HT-29)?
Answer: 950 nM

Question: For COc1ccc(S(=O)(=O)N(CCSC(=S)N2CCN(C)CC2)c2cc(OC)c(OC)c(OC)c2)cc1, which inhibition in vivo at 60 mg/kg (Bel-7402) is on record?
Answer: 43%

Question: Which IC50 (Histone deacetylase 1) does the source give for NC1CC1c1ccc(NC(=O)CCC(=O)NCCCNCCCCNCCCNC(=O)c2ccc(NC(=O)CCCCCCC(=O)NO)cc2)cc1 (stereo unspecified) here?
Answer: 42.5 nM

Question: And the IC50 [3]?
Answer: 3850 nM

Question: With O=C(O)c1ccc(CN2CCC(CN[C@@H]3C[C@H]3c3ccccc3)CC2)cc1 [GSK2879552] as the compound, how does the IC50 [3] read?
Answer: 1700 nM
